According to PubChem BioAssay (NCI):
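GI50: concentration for 50% inhibition of growth. Definition used: TGI = concentration required for complete inhibition of growth.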

Experiments:
Test in all cases: growth of human tumour cells (NCI), 384-well format
NCI-H322M lung = tested on: NCI-H322M lung
MDA-MB-468 breast = tested on: MDA-MB-468 breast
RXF 393 renal = tested on: RXF 393 renal
UO-31 renal = tested on: UO-31 renal
SF-268 CNS = tested on: SF-268 CNS
SF-295 CNS = tested on: SF-295 CNS
OVCAR-8 ovarian = tested on: OVCAR-8 ovarian
HCT-116 colon = tested on: HCT-116 colon
ACHN renal = tested on: ACHN renal
COLO 205 colon = tested on: COLO 205 colon
MALME-3M melanoma = tested on: MALME-3M melanoma
CCRF-CEM leukemia = tested on: CCRF-CEM leukemia
NCI/ADR-RES ovarian = tested on: NCI/ADR-RES ovarian
BT-549 breast = tested on: BT-549 breast
SF-539 CNS = tested on: SF-539 CNS
SR leukemia = tested on: SR leukemia
MDA-MB-231 breast = tested on: MDA-MB-231 breast
U251 glioblastoma = tested on: U251 glioblastoma
A498 renal = tested on: A498 renal
HOP-62 NSCLC = tested on: HOP-62 NSCLC
NCI-H522 lung = tested on: NCI-H522 lung
SW-620 colon = tested on: SW-620 colon
SK-MEL-5 melanoma = tested on: SK-MEL-5 melanoma
HOP-92 NSCLC = tested on: HOP-92 NSCLC
HCT-15 colon = tested on: HCT-15 colon
TK-10 renal = tested on: TK-10 renal
SNB-19 CNS = tested on: SNB-19 CNS
KM12 colon = tested on: KM12 colon
NCI-H226 lung = tested on: NCI-H226 lung
MOLT-4 leukemia = tested on: MOLT-4 leukemia
IGROV1 ovarian = tested on: IGROV1 ovarian
OVCAR-5 ovarian = tested on: OVCAR-5 ovarian
UACC-257 melanoma = tested on: UACC-257 melanoma
MCF7 breast = tested on: MCF7 breast
HT29 colon = tested on: HT29 colon
SN12C renal = tested on: SN12C renal
SK-OV-3 ovarian = tested on: SK-OV-3 ovarian
SK-MEL-28 melanoma = tested on: SK-MEL-28 melanoma
SK-MEL-2 melanoma = tested on: SK-MEL-2 melanoma
A549 NSCLC = tested on: A549 NSCLC
HCC-2998 colon = tested on: HCC-2998 colon
786-0 renal = tested on: 786-0 renal
LOX IMVI melanoma = tested on: LOX IMVI melanoma
DU-145 prostate = tested on: DU-145 prostate
PC-3 prostate = tested on: PC-3 prostate
UACC-62 melanoma = tested on: UACC-62 melanoma
NCI-H460 NSCLC = tested on: NCI-H460 NSCLC
HL-60(TB) leukemia = tested on: HL-60(TB) leukemia
K-562 leukemia = tested on: K-562 leukemia
OVCAR-3 ovarian = tested on: OVCAR-3 ovarian
SNB-75 CNS = tested on: SNB-75 CNS
T-47D breast = tested on: T-47D breast
EKVX NSCLC = tested on: EKVX NSCLC
M14 melanoma = tested on: M14 melanoma
OVCAR-4 ovarian = tested on: OVCAR-4 ovarian
MDA-MB-435 melanoma = tested on: MDA-MB-435 melanoma
NCI-H23 lung = tested on: NCI-H23 lung
CAKI-1 renal = tested on: CAKI-1 renal
RPMI-8226 leukemia = tested on: RPMI-8226 leukemia
HS 578T breast = tested on: HS 578T breast

## CC(C)Oc1ccc(-c2nn([C@@H](C)c3oc4ccc(F)cc4c(=O)c3-c3cccc(F)c3)c3ncnc(N)c23)cc1F
NCI-H322M lung
  GI50: > 100 µM
  TGI: > 100 µM
MDA-MB-468 breast
  GI50: 5.71 µM
  TGI: > 83.7 µM
RXF 393 renal
  GI50: 2.45 µM
  TGI: 11.5 µM
UO-31 renal
  GI50: 1.94 µM
  TGI: 7.54 µM
SF-268 CNS
  GI50: > 100 µM
  TGI: > 100 µM
SF-295 CNS
  GI50: > 100 µM
  TGI: > 100 µM
OVCAR-8 ovarian
  GI50: 11.8 µM
  TGI: > 100 µM
HCT-116 colon
  GI50: 13.9 µM
  TGI: > 100 µM
ACHN renal
  GI50: > 86.8 µM
  TGI: > 100 µM
COLO 205 colon
  GI50: > 100 µM
  TGI: > 100 µM
MALME-3M melanoma
  GI50: > 100 µM
  TGI: > 100 µM
CCRF-CEM leukemia
  GI50: 3.62 µM
  TGI: > 83.9 µM
NCI/ADR-RES ovarian
  GI50: 19.5 µM
  TGI: > 100 µM
BT-549 breast
  GI50: 10.3 µM
  TGI: > 100 µM
SF-539 CNS
  GI50: 20.3 µM
  TGI: > 100 µM
SR leukemia
  GI50: 2.84 µM
  TGI: 14.9 µM
MDA-MB-231 breast
  GI50: 9.94 µM
  TGI: > 100 µM
U251 glioblastoma
  GI50: 88.8 µM
  TGI: > 100 µM
A498 renal
  GI50: 8.65 µM
  TGI: > 100 µM
HOP-62 NSCLC
  GI50: > 100 µM
  TGI: > 100 µM
NCI-H522 lung
  GI50: 12.9 µM
  TGI: > 100 µM
SW-620 colon
  GI50: > 90.1 µM
  TGI: > 100 µM
SK-MEL-5 melanoma
  GI50: > 29.3 µM
  TGI: > 100 µM
HOP-92 NSCLC
  GI50: 8.09 µM
  TGI: > 80.9 µM
HCT-15 colon
  GI50: 32.5 µM
  TGI: > 100 µM
TK-10 renal
  GI50: > 100 µM
  TGI: > 100 µM
SNB-19 CNS
  GI50: > 100 µM
  TGI: > 100 µM
KM12 colon
  GI50: > 100 µM
  TGI: > 100 µM
NCI-H226 lung
  GI50: 51.5 µM
  TGI: > 100 µM
MOLT-4 leukemia
  GI50: 3.51 µM
  TGI: > 100 µM
IGROV1 ovarian
  GI50: > 100 µM
  TGI: > 100 µM
OVCAR-5 ovarian
  GI50: > 100 µM
  TGI: > 100 µM
UACC-257 melanoma
  GI50: > 100 µM
  TGI: > 100 µM
MCF7 breast
  GI50: 9.51 µM
  TGI: > 100 µM
HT29 colon
  GI50: > 100 µM
  TGI: > 100 µM
SN12C renal
  GI50: > 100 µM
  TGI: > 100 µM
SK-OV-3 ovarian
  GI50: > 100 µM
  TGI: > 100 µM
SK-MEL-28 melanoma
  GI50: > 100 µM
  TGI: > 100 µM
SK-MEL-2 melanoma
  GI50: > 100 µM
  TGI: > 100 µM
A549 NSCLC
  GI50: 11.1 µM
  TGI: > 100 µM
HCC-2998 colon
  GI50: > 100 µM
  TGI: > 100 µM
786-0 renal
  GI50: 26.2 µM
  TGI: > 100 µM
LOX IMVI melanoma
  GI50: > 100 µM
  TGI: > 100 µM
DU-145 prostate
  GI50: > 100 µM
  TGI: > 100 µM
PC-3 prostate
  GI50: 7.27 µM
  TGI: > 100 µM
UACC-62 melanoma
  GI50: > 100 µM
  TGI: > 100 µM
NCI-H460 NSCLC
  GI50: 10.5 µM
  TGI: > 100 µM
HL-60(TB) leukemia
  GI50: 5.31 µM
  TGI: > 36 µM
K-562 leukemia
  GI50: 5.18 µM
  TGI: > 100 µM
OVCAR-3 ovarian
  GI50: 12.1 µM
  TGI: > 100 µM
SNB-75 CNS
  GI50: 33.5 µM
  TGI: > 100 µM
T-47D breast
  GI50: 6.03 µM
  TGI: > 100 µM
EKVX NSCLC
  GI50: > 100 µM
  TGI: > 100 µM
M14 melanoma
  GI50: > 100 µM
  TGI: > 100 µM
OVCAR-4 ovarian
  GI50: 6.49 µM
  TGI: > 100 µM
MDA-MB-435 melanoma
  GI50: > 100 µM
  TGI: > 100 µM
NCI-H23 lung
  GI50: 38.5 µM
  TGI: > 100 µM
CAKI-1 renal
  GI50: > 100 µM
  TGI: > 100 µM
RPMI-8226 leukemia
  GI50: 3.34 µM
  TGI: 9.04 µM

## COc1cc([C@@H]2c3cc4c(cc3[C@@H](OC3OC5CO[C@@H](c6cccs6)OC5C(O)C3O)[C@H]3COC(=O)[C@H]23)OCO4)cc(OC)c1O (stereo partly drawn)
NCI-H322M lung
  GI50: 3.25 µM
  TGI: 14.3 µM
MDA-MB-468 breast
  GI50: 0.138 µM
  TGI: 0.35 µM
RXF 393 renal
  GI50: 0.685 µM
  TGI: 2.51 µM
UO-31 renal
  GI50: 4 µM
  TGI: 17.5 µM
SF-268 CNS
  GI50: 0.134 µM
  TGI: 1.35 µM
SF-295 CNS
  GI50: 0.103 µM
  TGI: 0.49 µM
OVCAR-8 ovarian
  GI50: 0.151 µM
  TGI: 1.47 µM
HCT-116 colon
  GI50: 0.0678 µM
  TGI: 2.02 µM
ACHN renal
  GI50: 0.296 µM
  TGI: 1.71 µM
MALME-3M melanoma
  GI50: 0.671 µM
  TGI: 3.97 µM
CCRF-CEM leukemia
  TGI: 0.0219 µM
NCI/ADR-RES ovarian
  GI50: 63.7 µM
  TGI: > 100 µM
BT-549 breast
  GI50: 0.0758 µM
  TGI: 0.537 µM
SF-539 CNS
  GI50: 0.0959 µM
  TGI: 0.56 µM
MDA-MB-231 breast
  GI50: 0.171 µM
  TGI: 0.599 µM
U251 glioblastoma
  GI50: 0.0674 µM
  TGI: 1.2 µM
A498 renal
  GI50: 0.206 µM
  TGI: 3.51 µM
HOP-62 NSCLC
  GI50: 0.0741 µM
  TGI: 0.267 µM
NCI-H522 lung
  GI50: 0.198 µM
  TGI: 1.53 µM
HS 578T breast
  GI50: 0.0624 µM
  TGI: 0.703 µM
SW-620 colon
  GI50: 0.0449 µM
  TGI: 1.35 µM
HOP-92 NSCLC
  GI50: 0.321 µM
  TGI: 8.75 µM
HCT-15 colon
  GI50: 0.17 µM
  TGI: 1.39 µM
TK-10 renal
  GI50: 0.825 µM
  TGI: 2.24 µM
SNB-19 CNS
  GI50: 0.219 µM
  TGI: > 100 µM
KM12 colon
  GI50: 0.113 µM
  TGI: 1.35 µM
NCI-H226 lung
  GI50: 0.311 µM
  TGI: 8.81 µM
IGROV1 ovarian
  GI50: 1.35 µM
  TGI: 10 µM
OVCAR-5 ovarian
  GI50: 0.395 µM
  TGI: 2.41 µM
UACC-257 melanoma
  GI50: 2.85 µM
  TGI: 13.1 µM
MCF7 breast
  GI50: 0.0828 µM
  TGI: 12.2 µM
HT29 colon
  GI50: 0.236 µM
  TGI: 1.23 µM
SN12C renal
  GI50: 0.139 µM
  TGI: 0.665 µM
SK-OV-3 ovarian
  GI50: 0.326 µM
  TGI: 2.67 µM
SK-MEL-28 melanoma
  GI50: 0.321 µM
  TGI: 1.97 µM
SK-MEL-2 melanoma
  GI50: 0.567 µM
  TGI: 0.89 µM
A549 NSCLC
  GI50: 0.173 µM
  TGI: 4.08 µM
786-0 renal
  GI50: 0.197 µM
  TGI: 1.18 µM
LOX IMVI melanoma
  GI50: 0.169 µM
  TGI: 1.57 µM
DU-145 prostate
  GI50: 0.212 µM
  TGI: 1.21 µM
PC-3 prostate
  GI50: 1.39 µM
  TGI: 5.76 µM
UACC-62 melanoma
  GI50: 0.103 µM
  TGI: 1.8 µM
HL-60(TB) leukemia
  TGI: 0.0116 µM
K-562 leukemia
  GI50: 0.154 µM
  TGI: 1.42 µM
OVCAR-3 ovarian
  GI50: 0.348 µM
  TGI: 2.07 µM
SNB-75 CNS
  GI50: 0.327 µM
  TGI: 1.78 µM
T-47D breast
  GI50: 0.146 µM
  TGI: 27.3 µM
EKVX NSCLC
  GI50: 3.01 µM
  TGI: 28.7 µM
M14 melanoma
  GI50: 0.16 µM
  TGI: 1.15 µM
OVCAR-4 ovarian
  GI50: 3.42 µM
  TGI: 17.4 µM
MDA-MB-435 melanoma
  GI50: 0.756 µM
  TGI: 2.43 µM
NCI-H23 lung
  GI50: 0.0771 µM
  TGI: 0.664 µM
CAKI-1 renal
  GI50: 0.224 µM
  TGI: 4.46 µM
RPMI-8226 leukemia
  TGI: 0.161 µM
